Measurements: patent US20140323757A1, “Biosurfactant Isolated from Yeast” (Gyeongbuk Institute of Marine Bio-industry, priority 2013, published 2014)

Test: Surface tension measurement
Type: physicochemical
Design: unit not given here
Conditions: at 1.5 mg/L
Description: Surface tension is increased in proportion to molecular interaction, and hydrocarbons or organic polymers show low surface tension due to their weak molecular interaction. Surface tension is represented by N/m. Since surfactants have hydrophobic and hydrophilic groups, when added to water, its surface tension is lowered. […] The compounds represented by […]

CCCCCC(=O)OC1C(O)C(O)C(O)C(O)C1OC(=O)CCCCC (single isomer, unassigned) [Compound A57-4-gly-2]
Surface Tension: 22.40

CCCCCC(=O)OC1C(O)C(O)C(O)C(O)C1OC(=O)CCCCC (single isomer, unassigned) [Compound A57-4-gly-5]
Surface Tension: 22.44

CCCCCC(=O)OC1C(O)C(O)C(O)C(OC(C)=O)C1OC(=O)CCCCC (centres unmarked) [Compound A57-4-gly-1]
Surface Tension: 22.90

CCCCCC(=O)OC1C(O)C(O)C(O)C(OC(=O)CCCCC)C1OC(C)=O (centres unmarked) [Compound A57-4-gly-3]
Surface Tension: 28.71

CCCCCC(=O)OC1C(O)C(O)C(O)C(OC(=O)CCCCC)C1OC(=O)CCCCC (centres unmarked) [Compound A57-4-gly-4]
Surface Tension: 25.28
